Experimental findings from US8859615B2, “Compounds, compositions and methods for reducing toxicity and treating or preventing diseases” (priority 2008, dated 2014) are described below.

Structures are written as SMILES. “Also recorded” adds a separate entry of the source.

For data set [1], the system named is human colon carcinoma HCT-116 xenografts. Description: Compound D with Iso-Oxazole-Fludelone or Isodehydelone in nude mice bearing HCT-116 xenografts.
In data set [2] the test system is human mammary carcinoma MX-1 xenografts. Particulars: 5FU 50 mg/kg i.v. QD×5.
Another data set has as its system MX-1 mammary carcinoma. Description: Cytotoxicity against solid tumor cells, CCK-8, 72 hrs (Table 4). In kind it is cell-based. Particulars: Homo sapiens. The method, then: (§1) Compounds are also evaluated against A-549 lung carcinoma and SK-OV-3 ovarian adenocarcinoma cell lines using the methodology as for Table 3. The potency order for the compounds may vary in different tumor cell lines. […] Absorbance was measured using a Powerwave XS microplate spectrophotometer.

In a further data set the test system is HCT-116 colon carcinoma. The description is as above. Conditions: Homo sapiens. It counts as cell-based. The method, then: as §1
Data set [3] deals with human mammary carcinoma MX-1 cells. Description: In vitro drug combination (median-effect / combination index, DRI) against MX-1 cell growth (Tables 5, 5A). It counts as cell-based. The procedure:
The data in Tables 2X, 3A-E, 4, 5, and 6 were obtained using the cell counting kit-8 (CCK-8) tetrazolium assay in a 96-well microplate. Five to seven concentrations of each compound in triplicate were used, and the IC50 values were determined by CompuSyn software automation (Chou T C. and Martin N. ComboSyn, Inc., 2006) based on the median-effect equation and plot (Chou T C. J. Theor. Biol. 59:235-276, 1976; Chou T C. Pharmacol. Rev. 58: 621-681, 2006). […] The r value defines the correlation coefficient of the median-effect plot which signifies the conformity to the mass-action law principle (Chou T C. J. Theor. Biol. 59:235-276, 1976; Chou T C. Pharmacol. Rev. 58:621-681, 2006). These parameters were determined by CompuSyn simulation (available at http://www.combosyn.com).
Efficacy of panaxytriol in combination with Fludelone (an illustrative tubulin-binding anticancer agent) was measured according to procedures described in more detail by Chou et al. (1984) Adv. Enz. Regul., 22:27-55, Chou et al. (1994) Nat'l Cancer Inst., 86:1517-1524, and Chou (2006) Pharmacological Reviews, […]:621-681. Software packages used for data analyses were CalcuSyn for Windows (Chou and Hayball., Multiple-drug dose effect analyzer and manual, Biosoft, Cambridge Place, Cambridge, U.K (1996)) and CompuSyn for Drug Combinations (Chou and Martin, Software for determination of synergism and antagonism and determination of IC50, ED50 and LD50, ComboSyn Inc., Paramus, N.J. (2005)). The entire contents of each of the above references are incorporated by reference in their entireties. […] DRI quantitates synergy as how many fold less of a dose is required to obtain a given level of effect for a combination of drugs versus the same effect for an individual component of the combination.

Data set [4] concerns Rat pheochromocytoma cells (PC12 cells). The data set is described as follows: Neurite outgrowth with NGF. Conditions: 50 ng/mL NGF, 60 μM panaxytriol, 96 hr, vs NGF only. It counts as cell-based. The method, then:
Rat pheochromocytoma cells (PC12 cells) were treated with 50 ng/mL of nerve growth factor (NGF) and with 60 μM panaxytriol for 96 hr. The cells were then compared with a similarly prepared control, lacking panaxytriol. […] This finding confirms that panaxytriol is useful for treating or preventing a neurotrophic disorder.

Setting [5] is: Table 5, fold dose reduction allowed in the Panaxytriol + Fludelone combination.

As to `C=C[C@H](O)C#CC#CC[C@H]1OC(C)(C)O[C@@H]1CCCCCCC` [Compound (D)], the “effect on tumor size and body-weight” value in data set [1] (10 mg/kg, Q3D×3, Q6D×3, i.v., FIGS. 4A-C) was “reduced the tumor size and increased the subject body-weight”. Moreover, the “effect of oral administration on toxicity of isodehydelone” value in data set [1] (FIG. 15, Compound (D) orally) is “reduces the toxicity and lethality of isodehydelone alone”. Besides, the “effect on therapeutic effect of Iso-oxazole-fludelone” value in data set [1] (FIGS. 4A, 4B) is given as “significantly enhances the therapeutic effect of Iso-oxazole-fludelone”. In addition, in data set [2], the “effect of co-treatment on acute body-weight decrease due to 5FU” value was “did not significantly reduce”. Further, the “effect of co-treatment on therapeutic effect of 5FU” value in data set [2] is recorded as “not significantly increased”. Also, the figures for the IC50 with MX-1 mammary carcinoma and with HCT-116 colon carcinoma were 5.32 µM and 0.617 µM, respectively.
`C=C[C@@H](O)C#CC#CC[C@@H](O)[C@H](O)CCCCCCC` [panaxytriol]: the IC50 in data set [3] (Homo sapiens, MX1, 72 h, read-out: Dose-effect parameter Dm (IC50)) worked out at 3.19 µM. Besides, in data set [3] (setting [5]), the “Dose-Reduction Index (DRI) at IC50” value is on record as 2.66, the “Dose-Reduction Index (DRI) at IC75” value was found to be 2.12, the “Dose-Reduction Index (DRI) at IC90” value is 1.70 and the “Dose-Reduction Index (DRI) at IC95” value is recorded as 1.46. The “dose-reduction index (DRI)” value in data set [3] (panaxytriol + Fludelone combination, MX-1 cells) is 1.46-2.7. In data set [4], the neurite outgrowth result is reported as “enhanced neurite outgrowth; also recorded: significant neurite outgrowth”.

One may read the IC50 as the concentration at which inhibition is half-maximal.
